Measurements as given in ChEMBL document CHEMBL1201862, “PubChem BioAssay data set” (2004).
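Method: 48-hour compound exposure of cells in 96-well plates, five concentrations, linear interpolation of endpoints. GI50 = concentration required for 50% inhibition of growth.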 The source made the active and inactive calls. Rule as the data show it: active = GI50 up to about 1.1 µM and inactive = higher.

How the values were obtained:
Assay in all cases: DTP human tumour cell line panel, 48 h
UACC-62 = tested on: UACC-62
RPMI-8226 = tested on: RPMI-8226
HT-29 = tested on: HT-29
SK-MEL-5 = tested on: SK-MEL-5
SK-MEL-2 = tested on: SK-MEL-2
MDA-MB-231 = tested on: MDA-MB-231
TK-10 = tested on: TK-10
PC-3 = tested on: PC-3
SF-295 = tested on: SF-295
KM12 = tested on: KM12
OVCAR-8 = tested on: OVCAR-8
OVCAR-3 = tested on: OVCAR-3
UO-31 = tested on: UO-31
RXF 393 = tested on: RXF 393
SF-268 = tested on: SF-268
OVCAR-4 = tested on: OVCAR-4
786-0 = tested on: 786-0
LOX IMVI = tested on: LOX IMVI
HCC 2998 = tested on: HCC 2998
CCRF-CEM = tested on: CCRF-CEM

Row | SMILES | GI50 (UACC-62) | GI50 (RPMI-8226) | GI50 (HT-29) | GI50 (SK-MEL-5) | GI50 (SK-MEL-2) | GI50 (MDA-MB-231) | GI50 (TK-10) | GI50 (PC-3) | GI50 (SF-295) | GI50 (KM12) | GI50 (OVCAR-8) | GI50 (OVCAR-3) | GI50 (UO-31) | GI50 (RXF 393) | GI50 (SF-268) | GI50 (OVCAR-4) | GI50 (786-0) | GI50 (LOX IMVI) | GI50 (HCC 2998) | GI50 (CCRF-CEM)
1 | COC(=O)NCCc1n[nH]c2c1C(=O)C=C(OC)C2=O | 25.4 µM (inactive) | 24.5 µM (inactive) | 42.6 µM (inactive) | 15.5 µM (inactive) | 54.2 µM (inactive) | 16.1 µM (inactive) | 43.9 µM (inactive) | 34.9 µM (inactive) | 18.2 µM (inactive) | 20.9 µM (inactive) | 22 µM (inactive) | 17.9 µM (inactive) | 24.3 µM (inactive) | 17.6 µM (inactive) | 18.5 µM (inactive) | 19.6 µM (inactive) | 19.5 µM (inactive) | 17.8 µM (inactive) | > 100 µM (inactive) | 21.1 µM (inactive)
2 | Cc1ccc([S+](c2ccccc2)c2cc(C)ccc2C)cc1.O=C(OC(C(=O)[O-])C(OC(=O)c1ccccc1)C(=O)O)c1ccccc1 (configuration not stated) | 12.2 µM (inactive) | 2 µM (inactive) | 7.69 µM (inactive) | 3.85 µM (inactive) | 3.51 µM (inactive) | 16.9 µM (inactive) | 18.2 µM (inactive) | 2.83 µM (inactive) | 11.9 µM (inactive) | 3.91 µM (inactive) | 6.7 µM (inactive) | 3.14 µM (inactive) | 38 µM (inactive) | 34 µM (inactive) | 22.1 µM (inactive) | 46 µM (inactive) | 26.2 µM (inactive) | 6.85 µM (inactive) | 7.46 µM (inactive) | 12.8 µM (inactive)
3 | C=CCN1C(=O)/C(=C/c2ccccc2)NC1=S | > 100 µM (inactive) | 48.5 µM (inactive) | > 100 µM (inactive) | 65.5 µM (inactive) | > 100 µM (inactive) | > 100 µM (inactive) | > 100 µM (inactive) | > 100 µM (inactive) | > 100 µM (inactive) | > 100 µM (inactive) | > 100 µM (inactive) | > 100 µM (inactive) | > 100 µM (inactive) | > 100 µM (inactive) | > 100 µM (inactive) | > 100 µM (inactive) | > 100 µM (inactive) | > 100 µM (inactive) | > 100 µM (inactive) | > 100 µM (inactive)
4 | COc1ccc(SCc2cc(OC)c(OC)c(OC)c2)cc1OC | 38 µM (inactive) | 33.3 µM (inactive) | 67.6 µM (inactive) | 15.8 µM (inactive) | 23 µM (inactive) | 57 µM (inactive) | > 91.4 µM (inactive) | 31.3 µM (inactive) | 45.7 µM (inactive) | 37.5 µM (inactive) | > 80.2 µM (inactive) | > 56 µM (inactive) | 27.9 µM (inactive) | > 95.5 µM (inactive) | > 100 µM (inactive) | 22 µM (inactive) | > 100 µM (inactive) | 51.4 µM (inactive) | 50.9 µM (inactive) | 64.9 µM (inactive)
5 | COC1=CC(=O)C[C@@H](C)[C@]12Oc1c(Cl)c(OC)cc(OC)c1C2=O [GRISEOFULVIN] | 18.6 µM (inactive) | 19.4 µM (inactive) | 16.8 µM (inactive) | 7.62 µM (inactive) | > 71.6 µM (inactive) | 6.41 µM (inactive) | > 85.1 µM (inactive) | 10.8 µM (inactive) | 21.8 µM (inactive) | 6.04 µM (inactive) | 30.1 µM (inactive) | 37.3 µM (inactive) | 43.7 µM (inactive) | 10.5 µM (inactive) | > 68.9 µM (inactive) | 38.2 µM (inactive) | 50.1 µM (inactive) | 18.7 µM (inactive) | 17.2 µM (inactive) | 33.3 µM (inactive)
6 | Cc1[nH]c2ncn(Nc3ccccc3)c(=N)c2c1Cc1ccccc1 | 0.0254 µM (active) | > 60.7 µM (inactive) | 2.6 µM (inactive) | 0.386 µM (active) | 0.142 µM (active) | 61.7 µM (inactive) | > 75.9 µM (inactive) | 23.4 µM (inactive) |  | 5.31 µM (inactive) | 32.9 µM (inactive) | 30.1 µM (inactive) | > 100 µM (inactive) | 30.6 µM (inactive) | > 100 µM (inactive) | > 27.5 µM (inactive) | 66.1 µM (inactive) | 10.7 µM (inactive) | > 100 µM (inactive) | 37.3 µM (inactive)
7 | COc1ccc(/C=C2\CSC/C(=C\c3ccc(OC)c(OC)c3OC)C2=O)c(OC)c1OC | 14.9 µM (inactive) | 16.4 µM (inactive) | 28.8 µM (inactive) | 28.3 µM (inactive) | 54.6 µM (inactive) | 66.4 µM (inactive) | 31.6 µM (inactive) | 47.3 µM (inactive) | 25.4 µM (inactive) | 32.4 µM (inactive) | 24.1 µM (inactive) | 52.1 µM (inactive) | > 100 µM (inactive) | 15.6 µM (inactive) | 41.6 µM (inactive) |  | 22.3 µM (inactive) | 23.4 µM (inactive) | > 10 µM (inactive) | 12.9 µM (inactive)
8 | CN1CN(c2ccccc2)C2(CCN(CCCSc3ccccc3NC(=O)/C=C/c3ccccc3)CC2)C1=O | 2.71 µM (inactive) | 1.89 µM (inactive) | 2.29 µM (inactive) | 3.55 µM (inactive) | 2.58 µM (inactive) | 1.73 µM (inactive) | 8.39 µM (inactive) | 5.45 µM (inactive) | 3.3 µM (inactive) | 4.59 µM (inactive) | 6.19 µM (inactive) | 3.18 µM (inactive) | 2.99 µM (inactive) | 7.55 µM (inactive) | 4.21 µM (inactive) | 3.59 µM (inactive) | 7.03 µM (inactive) | 2.25 µM (inactive) | 4.84 µM (inactive) | 2.93 µM (inactive)
9 | CCCCCCCCC/C=C1\CCC(CN2CCOCC2)C1=O (configuration not stated) | 3.45 µM (inactive) | 0.303 µM (active) | 2.88 µM (inactive) | 6.65 µM (inactive) | 5.51 µM (inactive) | 2.96 µM (inactive) | 2.33 µM (inactive) | 1.79 µM (inactive) | 7.48 µM (inactive) | 2.17 µM (inactive) | 1.82 µM (inactive) | 8.55 µM (inactive) | 4.95 µM (inactive) | 2.31 µM (inactive) | 3.94 µM (inactive) | 3.72 µM (inactive) | 1.3 µM (inactive) | 0.855 µM (active) | 6.9 µM (inactive) | 1.8 µM (inactive)
10 | COC(=O)[C@@H]1C=C[C@H](OC2OC(COC(C)=O)C(OC(C)=O)C(OC(C)=O)C2OC(C)=O)n2c(=O)n(-c3ccccc3)c(=O)n21 (some centres not stated) | 3.1 µM (inactive) | 1.47 µM (inactive) | 1.88 µM (inactive) | 2.56 µM (inactive) | 2.25 µM (inactive) | 2.7 µM (inactive) | 1.79 µM (inactive) | 2.77 µM (inactive) | 10.8 µM (inactive) | 5.5 µM (inactive) | 2.55 µM (inactive) | 1.74 µM (inactive) | 2.24 µM (inactive) | 1.95 µM (inactive) | 2.51 µM (inactive) | 1.77 µM (inactive) | 1.41 µM (inactive) | 1.56 µM (inactive) | 8 µM (inactive) | 1.48 µM (inactive)
11 | CC(=O)N(C(C)=O)n1c(Cc2ccc(Cl)cc2)nn(C(C)=O)c1=O | > 100 µM (inactive) | > 100 µM (inactive) | > 100 µM (inactive) | > 100 µM (inactive) | > 100 µM (inactive) | > 100 µM (inactive) | > 100 µM (inactive) | > 100 µM (inactive) | > 100 µM (inactive) | > 100 µM (inactive) | > 100 µM (inactive) | > 100 µM (inactive) | > 100 µM (inactive) | > 100 µM (inactive) | > 100 µM (inactive) | > 100 µM (inactive) | > 100 µM (inactive) | > 100 µM (inactive) | > 100 µM (inactive) | > 100 µM (inactive)
12 | O=C(CCCCCCCCC(=O)NN1C(=O)/C(=C\c2ccc(O)c(O)c2)SC1c1ccc(Cl)cc1)NN1C(=O)/C(=C\c2ccc(O)c(O)c2)SC1c1ccc(Cl)cc1 (configuration not stated) | 14.2 µM (inactive) | 2.72 µM (inactive) | 57.7 µM (inactive) | 30.6 µM (inactive) | 20.4 µM (inactive) | 35.6 µM (inactive) | 25.8 µM (inactive) | 20.6 µM (inactive) | 16.2 µM (inactive) | 23.8 µM (inactive) | 10.7 µM (inactive) | 5.45 µM (inactive) | 5.35 µM (inactive) | 15.8 µM (inactive) | 8.67 µM (inactive) | 31.9 µM (inactive) | 7.55 µM (inactive) | 13.6 µM (inactive) | 34.2 µM (inactive) | < 0.01 µM (active)
13 | N/C(=N\N/C=C1\C=Nc2cc(C(F)(F)F)ccc2C1=O)NO | > 10 µM (inactive) | > 10 µM (inactive) | > 10 µM (inactive) | > 10 µM (inactive) | > 10 µM (inactive) | > 10 µM (inactive) | > 10 µM (inactive) | > 10 µM (inactive) | > 10 µM (inactive) | 0.001 µM (active) | > 10 µM (inactive) | > 10 µM (inactive) | > 10 µM (inactive) | > 10 µM (inactive) | > 10 µM (inactive) | > 10 µM (inactive) | > 10 µM (inactive) | > 10 µM (inactive) | > 10 µM (inactive) | > 10 µM (inactive)
14 | CCOC(=O)c1c(-c2ccc(OC)cc2)c(C#N)c(=S)n(C2OC(COC(C)=O)C(OC(C)=O)C(OC(C)=O)C2OC(C)=O)c1-c1ccccc1 (configuration not stated) | > 100 µM (inactive) | > 100 µM (inactive) | > 100 µM (inactive) | 40.6 µM (inactive) | > 100 µM (inactive) | > 100 µM (inactive) | > 100 µM (inactive) | > 100 µM (inactive) | > 100 µM (inactive) | > 100 µM (inactive) |  | > 100 µM (inactive) | > 100 µM (inactive) | > 100 µM (inactive) | > 100 µM (inactive) | > 100 µM (inactive) | > 100 µM (inactive) | > 100 µM (inactive) | > 100 µM (inactive) | > 100 µM (inactive)
